Test results as given in patent US20070128217A1 (priority 2003, published 2007).

Tests used:
[1] = tested on: control sera (pooled serum of ten healthy LUMC hospital workers; commercial negative donor pooled serum from the Dutch bloodbank); type: binding, human; design: Binding of Control serum LUMC to linear peptides / Binding of Control serum Blood-bank to linear peptides / Binding of Control serum LUMC to looped peptides / Binding of Control Serum Blood-Bank to Looped peptides / Binding of Control serum LUMC to linear peptides of the protein M of SARS-CoV Urbani / Binding of Control serum Blood-bank to linear peptides of the protein M of SARS-CoV Urbani / Binding of Control serum LUMC to looped peptides of the protein M of SARS-CoV Urbani / Binding of Control Serum Blood-Bank to Looped peptides of the protein M of SARS-CoV Urbani: unit not given here
[2] = tested on: recombinant human anti-SARS-CoV antibody 03-018; type: binding; design: Binding of antibody 03-018 to linear peptides of the N protein of SARS-CoV Urbani / Binding of antibody 03-018 to looped/cyclic peptides of the N protein of SARS-CoV Urbani: unit not given here
[3] = tested on: antibodies in sera from SARS patients (sera 1a, 1b, 2, 6, 37, 62, London, SARS-yellow, SARS-green); type: binding, human; design: Binding of serum 6 to linear peptides of protein X1 of SARS-CoV Urbani / Binding of serum 37 to linear peptides of protein X1 of SARS-CoV Urbani / Binding of serum 6 to looped/cyclic peptide (PEPSCAN-ELISA) / Binding of serum 37 to looped/cyclic peptide (PEPSCAN-ELISA) / Binding of serum 37 to looped/cyclic peptides of protein X1 of SARS-CoV Urbani / Binding of serum 6 to linear peptides of protein X2 / Binding of serum 37 to linear peptides of protein X2 / Binding of serum 37 to looped/cyclic peptides of protein X2 of SARS-CoV Urbani / Binding of serum 6 to linear peptides of protein M of SARS-CoV Urbani / Binding of serum 37 to linear peptides of protein M of SARS-CoV Urbani / Binding of serum 6 to looped/cyclic peptides of protein M of SARS-CoV Urbani / Binding of serum 37 to looped/cyclic peptides of protein M of SARS-CoV Urbani / Binding of serum 6 to linear peptides of protein X3 of SARS-CoV Urbani / Binding of serum 37 to linear peptides of protein X3 of SARS-CoV Urbani / Binding of serum 37 to looped/cyclic peptides of protein X3 of SARS-CoV Urbani / Binding of serum 6 to linear peptides of protein X4 of SARS-CoV Urbani / Binding of serum 37 to linear peptides of protein X4 of SARS-CoV Urbani / Binding of serum 37 to looped/cyclic peptides of protein X4 of SARS-CoV Urbani / Binding of serum 6 to linear peptides of protein X5 of SARS-CoV Urbani / Binding of serum 37 to linear peptides of protein X5 of SARS-CoV Urbani / Binding of serum 37 to looped/cyclic peptides of protein X5 of SARS-CoV Urbani / Binding of serum 6 to linear peptides of protein N of SARS-CoV Urbani / Binding of serum 37 to linear peptides of protein N of SARS-CoV Urbani / Binding of serum 6 to linear peptide (PEPSCAN-ELISA) / Binding of serum 1a to looped/cyclic peptides of protein N of SARS-CoV Urbani / Binding of serum 1b to looped/cyclic peptides of protein N of SARS-CoV Urbani / Binding of serum 2 to looped/cyclic peptides of protein N of SARS-CoV Urbani / Binding of serum 6 to looped/cyclic peptides of protein N of SARS-CoV Urbani / Binding of serum 37 to looped/cyclic peptides of protein N of SARS-CoV Urbani / Binding of serum 62 to looped/cyclic peptides of protein N of SARS-CoV Urbani / Binding of serum London to looped/cyclic peptides of protein N of SARS-CoV Urbani / Binding of serum SARS-green to looped/cyclic peptides of protein N of SARS-CoV Urbani: unit not given here
[4] = tested on: rabbit serum obtained by immunizing a rabbit with the SARS-CoV strain Frankfurt 1; type: binding; design: Binding of a rabbit serum to linear peptides / Binding of a rabbit serum to looped peptides / Rabbit serum linear peptides / Rabbit serum looped peptides / Binding of a rabbit serum to linear peptides of protein N of SARS-CoV Urbani (Rabbit serum linear peptides) / Binding of a rabbit serum to looped/cyclic peptides of protein N of SARS-CoV Urbani (Rabbit serum looped peptides): unit not given here

Row | Sequence | Binding of antibody 03-018 to linear peptides of the N protein of SARS-CoV Urbani [2] | Binding of antibody 03-018 to looped/cyclic peptides of the N protein of SARS-CoV Urbani [2] | Binding of serum 1a to linear peptides of protein N of SARS-CoV Urbani [3] | Binding of serum 1a to looped/cyclic peptides of protein N of SARS-CoV Urbani [3] | Binding of serum 1b to linear peptides of protein N of SARS-CoV Urbani [3] | Binding of serum 1b to looped/cyclic peptides of protein N of SARS-CoV Urbani [3] | Binding of serum 2 to linear peptides of protein N of SARS-CoV Urbani [3] | Binding of serum 2 to looped/cyclic peptides of protein N of SARS-CoV Urbani [3] | Binding of serum 6 to linear peptides of protein N of SARS-CoV Urbani [3] | Binding of serum 6 to looped/cyclic peptides of protein N of SARS-CoV Urbani [3] | Binding of serum 37 to linear peptides of protein N of SARS-CoV Urbani [3] | Binding of serum 37 to looped/cyclic peptides of protein N of SARS-CoV Urbani [3] | Binding of serum 62 to linear peptides of protein N of SARS-CoV Urbani [3] | Binding of serum 62 to looped/cyclic peptides of protein N of SARS-CoV Urbani [3] | Binding of serum London to linear peptides of protein N of SARS-CoV Urbani [3] | Binding of serum London to looped/cyclic peptides of protein N of SARS-CoV Urbani [3] | Binding of serum SARS-green to linear peptides of protein N of SARS-CoV Urbani [3] | Binding of serum SARS-green to looped/cyclic peptides of protein N of SARS-CoV Urbani [3] | Binding of serum SARS-yellow to linear peptides of protein N of SARS-CoV Urbani [3] | Binding of serum SARS-yellow to looped/cyclic peptides of protein N of SARS-CoV Urbani [3] | also measured
1 | KKTDEAQPLPQRQKK | 0.1 | 0.2 | 0.2 | 0.2 | 0.1 | 0.1 | 0.3 | 0.1 | 0.4 | 0.0 | 0.7 | 0.4 | 0.6 | 0.2 | 1.7 | 0.2 | 0.2 | 0.0 | 1.1 | 0.0 | Control Serum Blood-Bank Looped peptides [1]: 0.4; Control serum Blood-bank linear peptides [1]: 0.7; Control serum LUMC linear peptides [1]: 0.7; Control serum LUMC looped peptides [1]: 0.3; Binding of a rabbit serum to linear peptides of protein N of SARS-CoV Urbani (Rabbit serum linear peptides) [4]: 0.2; Binding of a rabbit serum to looped/cyclic peptides of protein N of SARS-CoV Urbani (Rabbit serum looped peptides) [4]: 0.0
2 | KMKELSPRWYFYYLG | 0.1 | 0.2 | 0.2 | 0.3 | 0.1 | 0.2 | 0.1 | 0.4 | 0.1 | 0.3 | 0.5 | 0.7 | 0.5 | 0.7 | 0.4 | 0.4 | 0.1 | 0.4 | 0.6 | 0.6 | Binding of Control Serum Blood-Bank to Looped peptides [1]: 0.8; Binding of Control serum Blood-bank to linear peptides [1]: 0.6; Binding of Control serum LUMC to linear peptides [1]: 0.5; Binding of Control serum LUMC to looped peptides [1]: 0.6; Binding of a rabbit serum to linear peptides of protein N of SARS-CoV Urbani (Rabbit serum linear peptides) [4]: 0.1; Binding of a rabbit serum to looped/cyclic peptides of protein N of SARS-CoV Urbani (Rabbit serum looped peptides) [4]: 0.6
3 | KQRRPQGLPNNTASW | 0.1 | 0.2 | 0.2 | 0.4 | 0.1 | 0.2 | 0.2 | 0.4 | 0.1 | 0.4 | 0.7 | 0.6 | 0.6 | 0.5 | 0.4 | 0.6 | 0.3 | 0.3 | 0.5 | 0.7 | Binding of Control Serum Blood-Bank to Looped peptides [1]: 0.6; Binding of Control serum Blood-bank to linear peptides [1]: 0.7; Binding of Control serum LUMC to linear peptides [1]: 0.5; Binding of Control serum LUMC to looped peptides [1]: 0.6; Binding of a rabbit serum to linear peptides of protein N of SARS-CoV Urbani (Rabbit serum linear peptides) [4]: 0.1; Binding of a rabbit serum to looped/cyclic peptides of protein N of SARS-CoV Urbani (Rabbit serum looped peptides) [4]: 0.6
4 | KTDEAQPLPQRQKKQ | 0.1 | 0.2 | 0.3 | 0.3 | 0.2 | 0.1 | 0.3 | 0.3 | 0.3 | 0.6 | 0.9 | 0.3 | 0.9 | 0.1 | 1.4 | 0.7 | 0.6 | 0.2 | 1.5 | 0.5 | Control Serum Blood-Bank Looped peptides [1]: 0.4; Control serum Blood-bank linear peptides [1]: 0.7; Control serum LUMC linear peptides [1]: 0.9; Control serum LUMC looped peptides [1]: 0.4; Binding of a rabbit serum to linear peptides of protein N of SARS-CoV Urbani (Rabbit serum linear peptides) [4]: 0.0; Binding of a rabbit serum to looped/cyclic peptides of protein N of SARS-CoV Urbani (Rabbit serum looped peptides) [4]: 0.0
